Results taken from ChEMBL document CHEMBL1201862, “PubChem BioAssay data set” (2004).
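Tested at 5 concentrations; 48 h exposure; 96-well plates; endpoints linearly interpolated, else capped at highest concentration. GI50: concentration for 50% inhibition of growth.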 Active and inactive are the calls of the source. Cut-off read from the data, not from the text of the source: active = GI50 up to about 1.1 µM and inactive = higher.

Legend:
Assay in all cases: NCI tumour cell line growth inhibition, 48 h
PC-3 = test system: PC-3
UACC-62 = test system: UACC-62
Hs-578T = test system: Hs-578T
UO-31 = test system: UO-31
ACHN = test system: ACHN
BT-549 = test system: BT-549
OVCAR-4 = test system: OVCAR-4
SR = test system: SR
MDA-MB-231 = test system: MDA-MB-231
MOLT-4 = test system: MOLT-4
COLO 205 = test system: COLO 205
786-0 = test system: 786-0
T47D = test system: T47D
HL-60 = test system: HL-60
A549 = test system: A549
NCI-H226 = test system: NCI-H226
U-251 = test system: U-251
OVCAR-3 = test system: OVCAR-3
Malme-3M = test system: Malme-3M
UACC-257 = test system: UACC-257

SMILES	GI50 (PC-3)	GI50 (UACC-62)	GI50 (Hs-578T)	GI50 (UO-31)	GI50 (ACHN)	GI50 (BT-549)	GI50 (OVCAR-4)	GI50 (SR)	GI50 (MDA-MB-231)	GI50 (MOLT-4)	GI50 (COLO 205)	GI50 (786-0)	GI50 (T47D)	GI50 (HL-60)	GI50 (A549)	GI50 (NCI-H226)	GI50 (U-251)	GI50 (OVCAR-3)	GI50 (Malme-3M)	GI50 (UACC-257)
Nc1c2ccccc2nc2ccc(C(=O)Nc3ccc(S(N)(=O)=O)cc3)cc12	> 100 µM (inactive)	> 100 µM (inactive)	> 100 µM (inactive)	> 100 µM (inactive)	> 100 µM (inactive)	> 100 µM (inactive)	> 100 µM (inactive)	> 100 µM (inactive)	> 100 µM (inactive)	> 100 µM (inactive)	> 100 µM (inactive)	> 100 µM (inactive)	> 100 µM (inactive)	> 100 µM (inactive)	> 100 µM (inactive)	> 100 µM (inactive)	> 100 µM (inactive)	> 100 µM (inactive)	> 100 µM (inactive)	> 100 µM (inactive)
Cn1c(=O)n2n(c1=O)Cc1cccc3cccc(c13)C2	> 100 µM (inactive)	> 100 µM (inactive)	> 100 µM (inactive)	63.8 µM (inactive)	> 100 µM (inactive)	> 100 µM (inactive)	> 100 µM (inactive)	> 100 µM (inactive)	> 100 µM (inactive)	> 100 µM (inactive)	> 100 µM (inactive)	> 100 µM (inactive)	> 100 µM (inactive)	1.82 µM (inactive)	> 100 µM (inactive)	> 100 µM (inactive)	> 100 µM (inactive)	> 100 µM (inactive)	> 100 µM (inactive)	> 100 µM (inactive)
Cc1ccccc1N(C)S(=O)(=O)c1ccccc1[N+](=O)[O-]	38.9 µM (inactive)	38.8 µM (inactive)	66.1 µM (inactive)	34.3 µM (inactive)	81.8 µM (inactive)	33 µM (inactive)	67.6 µM (inactive)	36.6 µM (inactive)	22.3 µM (inactive)	27.9 µM (inactive)	13.1 µM (inactive)	87.3 µM (inactive)	58.1 µM (inactive)	27.9 µM (inactive)	45.9 µM (inactive)	33.1 µM (inactive)	36.3 µM (inactive)	46.3 µM (inactive)	> 100 µM (inactive)	57 µM (inactive)
COc1ccc2c(c1)C(=O)C1(C2)[C@H](c2ccccc2)C2C(=O)c3cc(OC)ccc3C2[C@H]1c1ccccc1 (stereo not given in full)	16.6 µM (inactive)	> 100 µM (inactive)	74.6 µM (inactive)	> 100 µM (inactive)	> 100 µM (inactive)	> 100 µM (inactive)	> 100 µM (inactive)	> 100 µM (inactive)	> 100 µM (inactive)	> 100 µM (inactive)	> 100 µM (inactive)	> 100 µM (inactive)	> 100 µM (inactive)	6.21 µM (inactive)	> 100 µM (inactive)	> 100 µM (inactive)	> 100 µM (inactive)	> 100 µM (inactive)	> 100 µM (inactive)	> 100 µM (inactive)
Cc1ccc2[nH]c3c(c2c1)C1CCC(C(C)(C)C)CC1C1C(=O)N(c2ccc(Oc4ccccc4)cc2)C(=O)C31 (stereo not given)	67.9 µM (inactive)	47.1 µM (inactive)	2.81 µM (inactive)	41 µM (inactive)	22.6 µM (inactive)	20 µM (inactive)	14.2 µM (inactive)	1.05 µM (active)	20.3 µM (inactive)	2.77 µM (inactive)	13.5 µM (inactive)	4.72 µM (inactive)	16.2 µM (inactive)	2.57 µM (inactive)	16.3 µM (inactive)	29.4 µM (inactive)	5.61 µM (inactive)	11.5 µM (inactive)	12.3 µM (inactive)	> 100 µM (inactive)
